From patent US20090018176A1, “FUNGICIDE COMPOSITION COMPRISING AN ARYLAMIDINE DERIVATIVE AND TWO KNOWN FUNGICIDE COMPOUNDS” (Bayer CropScience AG, priority 2005, published 2009)

Tests used:
Puccinia recondita = experiment: In vivo preventive test on Puccinia recondita f. sp. tritici (wheat brown rust); settings: 50 g/ha of each active compound, evaluation 12 days after inoculation, 0% = control, 100% = no infection
Description: In Vivo Preventive Test on Puccinia Recondite f. Sp. Tritici (Wheat Brown Rust) [table] To produce a suitable preparation of active compound, 1 part by weight of active compound or active compound combination is mixed with the stated amounts of solvent and emulsifier, and the concentrate is diluted with water to the desired concentration. To test for preventive activity, young plants are […] at the stated rate of application. The plants remain for 24 hours in an incubation cabinet at 20° C. and a relative atmospheric humidity of 100%. The plants are placed in a greenhouse at a temperature of approximately 20° C. and a relative atmospheric humidity of approximately 80% to promote the development of rust pustules. Evaluation is carried out 12 days after the inoculation. 0% means an efficacy which corresponds to that of the control, whereas an efficacy of 100% means that no infection is observed. […] Compound 1 according to the invention is N-ethyl-N-methyl-N′-[4-(3-t-butyl-4-chlorphenoxy)-2,5 xylyl]-formamidine.

Pyrenophora teres = experiment: In vivo curative test on Pyrenophora teres (barley); settings: 50 g/ha of each active compound, evaluation 12 days after inoculation, 0% = control, 100% = no infection
Description: In Vivo Curative Test on Pyrenophora Teres (Barley) [table] To produce a suitable preparation of active compound, 1 part by weight of active compound or active compound combination is mixed with the stated amounts of solvent and emulsifier, and the concentrate is diluted with water to the desired concentration. To test for curative activity, young plants are sprayed with a conidia suspension of Pyrenophora teres. The plants remain in an incubation cabinet at 20° C. and 100% relative atmospheric humidity for 48 hours. The plants are then sprayed with the preparation of active compound at the stated application rate. The plants are placed in a greenhouse at a temperature of about 20° C. and a relative atmospheric humidity of about 80%. Evaluation is carried out 12 days after the inoculation. 0% means an efficacy which corresponds to that of the control, whereas an efficacy of 100% means that no infection is observed.

SMILES | Experimental efficacy (%) (Puccinia recondita) | Experimental efficacy (%) (Pyrenophora teres)
CCN(C)C=Nc1cc(C)c(Oc2ccc(Cl)c(C(C)(C)C)c2)cc1C [compound 1, N-ethyl-N-methyl-N′-[4-(3-t-butyl-4-chlorphenoxy)-2,5 xylyl]-formamidine] | 22% | 0%
OC(Cc1ccccc1Cl)(Cn1nc[nH]c1=S)C1(Cl)CC1 (stereo not drawn) [prothioconazole] |  | 0%
CCCN(CC)CC1COC2(CCC(C(C)(C)C)CC2)O1 (stereo not drawn) [spriroxamine, spiroxamine] | 0% | 50%
CC(C)(C)C(O)(CCc1ccc(Cl)cc1)Cn1cncn1 (stereo not drawn) [tebuconazole] | 78% | 
